Measured values as given in article PMC11899342, “Novel Triazeneindole Antibiotics: Synthesis and Hit-to-Lead Optimization” (International Journal of Molecular Sciences, 2025).
Read-outs that look alike come from different tables or passages of the source.

Key:
[1] = test system: HepG2 human liver carcinoma cells; assay: MTT cytotoxicity (hepatotoxicity) on HepG2; format: cell-based; conditions: Homo sapiens, HepG2, 24 h
Protocol: (§1) The primary screening of 22 substances was performed on human embryonic fibroblasts (HEFs). […] The HepG2 cell line was obtained from the American Type Culture Collection (ATCC cat. # HB-8065). The primary HEF cells (normal human embryonic fibroblasts) were derived from human embryonic stem cells. The cells were cultured in DMEM/F12 (1:1) medium containing 10% fetal bovine serum (Invitrogen, Carlsbad, CA, USA) at 37 °C and 5% CO2, according to standard mammalian tissue culture protocols and sterile technique. […] The incubation time with the substance was 24 h for all substances and cell lines. Cell detachment by trypsin, centrifugation, and counting in a hemocytometer were performed 16 h before the addition of the substance. For correct counting of the HepG2 cells, the cell suspension was passed through a syringe needle to get rid of cell aggregates. The cells were placed in the wells of a 96-well plate. The number of cells was selected according to the properties of the cell line and the final optical density in the experiment. Fibroblasts and hepatocytes were used in the amount of 10 thousand cells per well in 100 μL of DMEM/F12 medium supplemented with 10% fetal bovine serum. The substances were added to 100 µL of medium in the wells so that the final concentrations were 50, 25, 12.5, 6.25, 3.125, and 1.62 mg/L. The final well volume was 200 µL. The medium containing fetal bovine serum, without added substances, was used as a negative control. After 24 h, excessive amounts of medium were discarded. A total of 30 µL of MTT solution (5 mg/mL in PBS) was added to each well. After the precipitation of formazan crystals (3 h incubation), they were dissolved using 100 μL of dimethyl sulfoxide. The optical density (OD) was measured at 570 nm using a microplate reader (Eppendorf). For every condition, the cell viabilities were assessed in at least three independent experiments for every cell culture. Cell survival was calculated using the following formula:(OD of treated cells − OD blank)/(OD of control cells − OD blank) × 100%, where OD blank represents the OD values in wells without cells but with the addition of the MTT and DMSO solutions. The results were presented in the form of cytotoxicity curves, and the graphs were also plotted in a Microsoft Excel program; the calculation of the IC50 half-maximal inhibition concentration values was performed in a GraphPad Prism 6.0 (GraphPad Software Inc., San Diego, CA, USA) program, based on the equations of the cytotoxicity curves.

MRSA clinical isolates = assay: MIC by broth microdilution against multidrug-resistant MRSA clinical isolates; format: cell-based, Staphylococcus aureus; conditions: for MIC Range Against 8 MRSA Strains: 8 multidrug-resistant MRSA clinical isolates, tested 0.125-1 mg/L; for MIC: Staphylococcus aureus
Method in brief: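 Multidrug-resistant clinical MRSA isolates, 1 × 10^6 CFU/mL suspension in Mueller Hinton broth, broth microdilution with compounds at final 1, 0.5, 0.25 and 0.125 mg/L. Incubated 18 h at 37 °C; MIC taken as lowest concentration with no visible growth, triplicate.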

MRSA = assay: Selectivity index (average IC50 on eukaryotic cells / average MIC on MRSA); format: cell-based, Staphylococcus aureus; conditions: average IC50 on eukaryotic cells divided by average MIC on MRSA
Protocol: The selectivity index was calculated for each compound as the average IC50 on eukaryotic cells divided by the average MIC on MRSA (Table 2).

[2] = test system: human embryonic fibroblasts (HEFs); assay: MTT cytotoxicity on human embryonic fibroblasts; format: cell-based; conditions: Homo sapiens, Fibroblast, 24 h, ND = non-toxic in tested concentrations (up to 50 mg/L)
Protocol: as §1

[3] = Solubility in water by HPLC; format: physicochemical; conditions: water
Method in brief: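 Compound (1.0 mg in 10 μL DMSO) mixed with 1.0 mL water, shaken 5 min and centrifuged; supernatant analysed by C18 HPLC. Water concentration derived from peak area relative to an acetonitrile standard at 1.0 mg/mL.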

[4] = MRSA, Table S4, MRSA strain 1, read-out: MIC
[5] = MRSA, Table S4, MRSA strain 2, read-out: MIC
[6] = MRSA, Table S4, MRSA strain 3, read-out: MIC
[7] = MRSA, Table S4, MRSA strain 4, read-out: MIC
[8] = MRSA, Table S4, MRSA strain 5, read-out: MIC
[9] = MRSA, Table S4, MRSA strain 6, read-out: MIC
[10] = MRSA, Table S4, MRSA strain 7, read-out: MIC
[11] = MRSA, Table S4, MRSA strain 8, read-out: MIC
[12] = MRSA, Table S4, MRSA strain 9, read-out: MIC
[13] = MRSA, Table S4, MRSA strain 10, read-out: MIC
[14] = MRSA, Table S4, MRSA strain 12, read-out: MIC
[15] = MRSA, Table S4, MRSA strain 13, read-out: MIC
[16] = MRSA, Table S4, MRSA strain 14, read-out: MIC
[17] = MRSA, Table S4, MRSA strain 15, read-out: MIC
[18] = MRSA, Table S4, MRSA strain 16, read-out: MIC
[19] = MRSA, Table S4, MRSA strain 17, read-out: MIC
[20] = MRSA, Table S4, MRSA strain 18, read-out: MIC
[21] = MRSA, Table S4, MRSA strain 21, read-out: MIC
[22] = MRSA, Table S4, MRSA strain 23, read-out: MIC
[23] = MRSA, Table S4, MRSA strain 24, read-out: MIC
[24] = MRSA, Table S4, MRSA strain 25, read-out: MIC
[25] = MRSA, Table S4, MRSA strain 26, read-out: MIC
[26] = MRSA, Table S4, MRSA strain 27, read-out: MIC
[27] = MRSA, Table S4, MRSA strain 28, read-out: MIC
[28] = MRSA, Table S4, MRSA strain 29, read-out: MIC
[29] = MRSA, Table S4, MRSA strain 30, read-out: MIC
[30] = MRSA, Table S4, MRSA strain 31, read-out: MIC
[31] = MRSA, Table S4, MRSA strain 34, read-out: MIC
[32] = MRSA, Table S4, MRSA strain 35, read-out: MIC
[33] = MRSA, Table S4, MRSA strain 36, read-out: MIC
[34] = MRSA, Table S4, MRSA strain 40, read-out: MIC
[35] = MRSA, Table S4, MRSA strain 41, read-out: MIC
[36] = MRSA, Table S4, MRSA strain 42, read-out: MIC
[37] = MRSA, Table S4, MRSA strain 43, read-out: MIC
[38] = MRSA, Table S4, MRSA strain 44, read-out: MIC
[39] = MRSA, Table S4, MRSA strain 45, read-out: MIC
[40] = MRSA, Table S4, MRSA strain 46, read-out: MIC
[41] = MRSA, Table S4, MRSA strain 48, read-out: MIC
[42] = MRSA, Table S4, MRSA strain 49, read-out: MIC
[43] = MRSA, Table S4, MRSA strain 50, read-out: MIC
[44] = MRSA, Table S4, MRSA strain 51, read-out: MIC

CCOC(=O)c1[nH]c2ccccc2c1/N=N/N1CCN(C)CC1 [BX-SI001, Ethyl (E)-3-((4-methylpiperazin-1-yl)diazenyl)-1H-indole-2-carboxylate]
280 µM: solubility at 5 min ([3]; kinetic from dmso stock, read-out: Solubility in water, molar concentration)
1 mg/L: MIC Range Against 8 MRSA Strains (MRSA clinical isolates)
22 µg/mL: IC50 [1]
90.5 µg/mL: solubility at 5 min ([3]; kinetic from dmso stock, read-out: Solubility in water, mass concentration)
0.5 µg/mL: MIC (MRSA clinical isolates; [4]) | MIC (MRSA clinical isolates; [8]) | MIC (MRSA clinical isolates; [9]) | MIC (MRSA clinical isolates; [18]) | MIC (MRSA clinical isolates; [25])
19 µg/mL: IC50 [2]
1 µg/mL: MIC (MRSA clinical isolates; [5]) | MIC (MRSA clinical isolates; [6]) | MIC (MRSA clinical isolates; [7]) | MIC (MRSA clinical isolates; [10]) | MIC (MRSA clinical isolates; [11]) | MIC (MRSA clinical isolates; [12]) | MIC (MRSA clinical isolates; [13]) | MIC (MRSA clinical isolates; [14]) | MIC (MRSA clinical isolates; [15]) | MIC (MRSA clinical isolates; [16]) | MIC (MRSA clinical isolates; [17]) | MIC (MRSA clinical isolates; [19]) | MIC (MRSA clinical isolates; [20]) | MIC (MRSA clinical isolates; [21]) | MIC (MRSA clinical isolates; [22]) | MIC (MRSA clinical isolates; [23]) | MIC (MRSA clinical isolates; [24]) | MIC (MRSA clinical isolates; [26]) | MIC (MRSA clinical isolates; [27]) | MIC (MRSA clinical isolates; [28]) | MIC (MRSA clinical isolates; [29]) | MIC (MRSA clinical isolates; [30]) | MIC (MRSA clinical isolates; [31]) | MIC (MRSA clinical isolates; [32]) | MIC (MRSA clinical isolates; [33]) | MIC (MRSA clinical isolates; [34]) | MIC (MRSA clinical isolates; [35]) | MIC (MRSA clinical isolates; [36]) | MIC (MRSA clinical isolates; [37]) | MIC (MRSA clinical isolates; [38]) | MIC (MRSA clinical isolates; [39]) | MIC (MRSA clinical isolates; [40]) | MIC (MRSA clinical isolates; [41]) | MIC (MRSA clinical isolates; [42]) | MIC (MRSA clinical isolates; [43]) | MIC (MRSA clinical isolates; [44])
19: Selectivity Index (MRSA)

CCOC(=O)c1[nH]c2cc(F)ccc2c1/N=N/N1CCCC1 [BX-SI043, Ethyl (E)-6-fluoro-3-(pyrrolidin-1-yldiazenyl)-1H-indole-2-carboxylate]
0.88 µg/mL: solubility at 5 min ([3]; read-out: Solubility in water, mass concentration)
4–8 times: times lower MIC than either vancomycin or linezolid (MRSA clinical isolates; MRSA)
0.125 to 0.5 mg/L: minimal inhibitory concentration range (MRSA clinical isolates; 41 multidrug-resistant MRSA strains)
76: Selectivity Index (MRSA)
0.5 µg/mL: MIC (MRSA clinical isolates; [5]) | MIC (MRSA clinical isolates; [6]) | MIC (MRSA clinical isolates; [7]) | MIC (MRSA clinical isolates; [9]) | MIC (MRSA clinical isolates; [10]) | MIC (MRSA clinical isolates; [12]) | MIC (MRSA clinical isolates; [15]) | MIC (MRSA clinical isolates; [19]) | MIC (MRSA clinical isolates; [20]) | MIC (MRSA clinical isolates; [21]) | MIC (MRSA clinical isolates; [22]) | MIC (MRSA clinical isolates; [23]) | MIC (MRSA clinical isolates; [24]) | MIC (MRSA clinical isolates; [26]) | MIC (MRSA clinical isolates; [27]) | MIC (MRSA clinical isolates; [28]) | MIC (MRSA clinical isolates; [29]) | MIC (MRSA clinical isolates; [30]) | MIC (MRSA clinical isolates; [32]) | MIC (MRSA clinical isolates; [34]) | MIC (MRSA clinical isolates; [36]) | MIC (MRSA clinical isolates; [37]) | MIC (MRSA clinical isolates; [38]) | MIC (MRSA clinical isolates; [39]) | MIC (MRSA clinical isolates; [40]) | MIC (MRSA clinical isolates; [41]) | MIC (MRSA clinical isolates; [43]) | MIC (MRSA clinical isolates; [44])
3 µM: solubility at 5 min ([3]; read-out: Solubility in water, molar concentration)
0.125 µg/mL: MIC (MRSA clinical isolates; [31])
0.25 µg/mL: MIC (MRSA clinical isolates; MRSA, 8 MRSA strains, read-out: lowest MIC values against most tested strains) | MIC (MRSA clinical isolates; MRSA, Figure 6, MRSA strain 2, read-out: MIC against 8 MRSA strains) | MIC (MRSA clinical isolates; MRSA, Figure 6, MRSA strain 7, read-out: MIC against 8 MRSA strains) | MIC (MRSA clinical isolates; MRSA, Figure 6, MRSA strain 8, read-out: MIC against 8 MRSA strains) | MIC (MRSA clinical isolates; MRSA, Figure 6, MRSA strain 9, read-out: MIC against 8 MRSA strains) | MIC (MRSA clinical isolates; MRSA, Figure 6, MRSA strain 13, read-out: MIC against 8 MRSA strains) | MIC (MRSA clinical isolates; MRSA, Figure 6, MRSA strain 21, read-out: MIC against 8 MRSA strains) | MIC (MRSA clinical isolates; MRSA, Figure 6, MRSA strain 48, read-out: MIC against 8 MRSA strains) | MIC (MRSA clinical isolates; MRSA, Figure 6, MRSA strain 50, read-out: MIC against 8 MRSA strains) | MIC (MRSA clinical isolates; [4]) | MIC (MRSA clinical isolates; [8]) | MIC (MRSA clinical isolates; [11]) | MIC (MRSA clinical isolates; [13]) | MIC (MRSA clinical isolates; [14]) | MIC (MRSA clinical isolates; [16]) | MIC (MRSA clinical isolates; [17]) | MIC (MRSA clinical isolates; [18]) | MIC (MRSA clinical isolates; [25]) | MIC (MRSA clinical isolates; [33]) | MIC (MRSA clinical isolates; [35]) | MIC (MRSA clinical isolates; [42])
19 µg/mL: IC50 [1] | IC50 [2]
0.25 mg/L: MIC Range Against 8 MRSA Strains (MRSA clinical isolates)
